In US10603345B2, “Pharmaceutical composition for treating respiratory disease” (Kunming Institute of Botany, The Chinese Academy of Sciences, priority 2015, dated 2020):

Columns and labels:
Assay type in all cases: in vivo
MDA in LPS-induced rat = test: Effect on MDA in LPS-induced rat; conditions: ig 7 d, dose/kg: DXM 1.5 mg, Test group 1 30 mg, 2 15 mg, 3 7.5 mg, x ± S
Source text: Group and dose: in Test group 1 and Test group 2, the ratio of picrinine, vallesamine, scholaricine and 19-epischolaricine by weight was 45:6:28:3 and 17:14:9:4, respectively, and the other groups and doses thereof were as described in Example 9.
Test index: MDA in bronchoalveolar lavage fluid (BALF), serum, and homogenate was used as index.

LDH in LPS-induced rat = test: Effect on LDH in LPS-induced rat; conditions: ig 7 d, dose/kg: DXM 1.5 mg, Test group 1 30 mg, 2 15 mg, 3 7.5 mg
Experimental: (§1) Animal source: 190˜220 g male SD rat, from laboratory animal department of Kunming Medical University, License No. SCXK (Dian) 2011-0004.
(§2) Method and route: lipopolysaccharide (LPS) was used to induce a rat airway inflammation model; after intragastrical administration for 7 d at a dose of 10 mL/kg, the animal was sacrificed at the eighth day.
(§3) Sample preparation: all the samples were prepared by using 0.5% carboxymethylcellulose sodium (0.5% CMC-Na).
Group and dose: in Test group 1 and Test group 2, the ratio of picrinine, vallesamine, scholaricine and 19-epischolaricine by weight was 10:28:15:8 and 10:7:7:2, respectively, and the other groups and doses thereof were as described in Example 9.
Test index: LDH in bronchoalveolar lavage fluid (BALF), and serum was used as index.

[1] = system: inflammatory cell in LPS-induced rat; test: Effect on inflammatory cell and classification in BALF of LPS-induced rat; conditions: ig 7 d, dose/kg: DXM 1.5 mg, Test group 1 30 mg, 2 15 mg, 3 7.5 mg, x ± S
Experimental: as §1, §2, §3
Group and dose: in Test group 1 and Test group 2, the ratio of picrinine, vallesamine, scholaricine and 19-epischolaricine by weight was 43:16:30:8 and 20:38:30:7, respectively, and the other groups and doses thereof were as described in Example 9.
Test index: Total number of white blood cells (WBCs) and inflammatory cell classification in bronchoalveolar lavage fluid (BALF) were used as indexes.

NO in LPS-induced rat = test: Effect on NO in LPS-induced rat; conditions: ig 7 d, dose/kg: DXM 1.5 mg, Test group 1 30 mg, 2 15 mg, 3 7.5 mg, x ± S
Experimental: as §1, §2, §3
Group and dose: in Test group 1 and Test group 2, the ratio of picrinine, vallesamine, scholaricine and 19-epischolaricine by weight was 40:30:28:2 and 15:18:26:7, respectively, and the other groups and doses thereof were as described in Example 9.
Test index: NO in bronchoalveolar lavage fluid (BALF), serum, and homogenate was used as index.

IL-8 in LPS-induced rat = test: Effect on IL-8 in LPS-induced rat; conditions: ig 7 d, dose/kg: DXM 1.5 mg, Test group 1 30 mg, 2 15 mg, 3 7.5 mg, x ± S
Experimental: as §1, §2, §3
Group and dose: in Test group 1 and Test group 2, the ratio of picrinine, vallesamine, scholaricine and 19-epischolaricine by weight was 48:10:30:9 and 12:14:15:6, respectively, and the other groups and doses thereof were as described in Example 9.
Test index: IL-8 in bronchoalveolar lavage fluid (BALF), serum, and homogenate was used as index.

ALB in LPS-induced rat = test: Effect on ALB in LPS-induced rat; conditions: ig 7 d, dose/kg: DXM 1.5 mg, Test group 1 30 mg, 2 15 mg, 3 7.5 mg
Experimental: as §1, §2, §3
Group and dose: in Test group 1 and Test group 2, the ratio of picrinine, vallesamine, scholaricine and 19-epischolaricine by weight was 36:38:7:1 and 16:15:14:5, respectively, and the other groups and doses thereof were as described in Example 9.
Test index: ALB in bronchoalveolar lavage fluid (BALF), and serum was used as index.

TNF-α in LPS-induced rat = test: Effect on TNF-α in LPS-induced rat; conditions: ig 7 d, dose/kg: DXM 1.5 mg, Test group 1 30 mg, 2 15 mg, 3 7.5 mg, x ± S
Experimental: as §1, §2, §3
Group and dose: in Test group 1 and Test group 2, the ratio of picrinine, vallesamine, scholaricine and 19-epischolaricine by weight was, 45:36:7:10 and 10:18:9:2, respectively, and the other groups and doses thereof were as described in Example 9.
Test index: TNF-α in bronchoalveolar lavage fluid (BALF), serum, and homogenate was used as index.

SOD in LPS-induced rat = test: Effect on SOD in LPS-induced rat; conditions: ig 7 d, dose/kg: DXM 1.5 mg, Test group 1 30 mg, 2 15 mg, 3 7.5 mg, x ± S
Experimental: as §1, §2, §3
Group and dose: in Test group 1 and Test group 2, the ratio of picrinine, vallesamine, scholaricine and 19-epischolaricine by weight was 8:45:29:9 and 20:14:12:7, respectively, and the other groups and doses thereof were as described in Example 9.
Test index: SOD in bronchoalveolar lavage fluid (BALF), serum, and homogenate was used as index.

AKP in LPS-induced rat = test: Effect on AKP in LPS-induced rat; conditions: ig 7 d, dose/kg: DXM 1.5 mg, Test group 1 30 mg, 2 15 mg, 3 7.5 mg
Experimental: as §1, §2, §3
Group and dose: in Test group 1 and Test group 2, the ratio of picrinine, vallesamine, scholaricine and 19-epischolaricine by weight was 8:25:30:9 and 12:10:9:2, respectively, and the other groups and doses thereof were as described in Example 9.
Test index: AKP in bronchoalveolar lavage fluid (BALF), and serum was used as index.

Compound: C[C@@H]1C[C@H]2[C@@H]3CCC4=CC(=O)C=C[C@]4(C)[C@@]3(F)[C@@H](O)C[C@]2(C)[C@@]1(O)C(=O)CO [DXM, dexamethasone]
- MDA lung tissue (MDA in LPS-induced rat; lung tissue homogenate): 1.61 ± 0.71 nmol/mL
- MDA Serum (MDA in LPS-induced rat; serum): 4.21 ± 1.49 nmol/mL
- LDH BALF (LDH in LPS-induced rat; BALF): 96.7 ± 25.6 U/L
- LDH Serum (LDH in LPS-induced rat; serum): 386.5 ± 92.7 U/L
- BALF cell classification AM (alveolar macrophage) [1]: 52.5 ± 7.0 %
- BALF cell classification L (lymphocyte) [1]: 9.3 ± 5.0^ %
- BALF cell classification M (monocyte) [1]: 28.9 ± 6.20 %
- BALF cell classification N (neutrophil) [1]: 8.2 ± 2.9 %
- WBC [1]: 3.35 ± 1.89 × 10^5/ml
- NO BALF (NO in LPS-induced rat; BALF): 13.52 ± 4.17 µmol/L
- NO Lung tissue (NO in LPS-induced rat; lung tissue homogenate): 18.35 ± 5.30 µmol/L
- NO Serum (NO in LPS-induced rat; serum): 27.20 ± 7.67 µmol/L
- IL-8 BALF (IL-8 in LPS-induced rat; BALF): 24.62 ± 12.42 pg/mL
- IL-8 lung tissue (IL-8 in LPS-induced rat; lung tissue homogenate): 60.62 ± 20.11 pg/mL
- IL-8 serum (IL-8 in LPS-induced rat; serum): 29.62 ± 12.13 pg/mL
- ALB BALF (ALB in LPS-induced rat; BALF): 0.18 ± 0.07 g/L
- ALB Serum (ALB in LPS-induced rat; serum): 19.4 ± 1.4 g/L
- TNF-a BALF (TNF-α in LPS-induced rat; BALF): 11.28 ± 4.51 pg/mL
- TNF-a lung tissue (TNF-α in LPS-induced rat; lung tissue homogenate): 152.11 ± 37.64 pg/mL
- TNF-a Serum (TNF-α in LPS-induced rat; serum): 5.11 ± 1.67 pg/mL
- SOD BALF (SOD in LPS-induced rat; BALF): 63.35 ± 13.45 U/mL
- SOD Lung tissue (SOD in LPS-induced rat; lung tissue homogenate): 92.25 ± 8.88 U/mL
- SOD Serum (SOD in LPS-induced rat; serum): 307.6 ± 97.7 U/mL
- AKP BALF (AKP in LPS-induced rat; BALF): 29.0 ± 5.9 U/L
- AKP Serum (AKP in LPS-induced rat; serum): 116.1 ± 36.0 U/L
